# According to the supplement of paper PMC10307832:
# Legend:
# Experiment in all cases: relative viability (nuclei count vs DMSO), 5 days (fraction); higher = more cells survive
# ALW-II-49-7 + Linsitinib = compound: Cc1ccc(C(=O)Nc2cccc(C(F)(F)F)c2)cc1Nc1cncc(C(N)=O)c1 [ALW-II-49-7] + C[C@]1(O)C[C@@H](c2nc(-c3ccc4ccc(-c5ccccc5)nc4c3)c3c(N)nccn32)C1 [Linsitinib] (partner 1 µM)
# Method in brief: (§1)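 Medians of duplicate plates are given as relative viability. That measure is the nuclei count in treated wells divided by the count in vehicle wells. Counts were taken on 4× images of lung cancer cell lines in 1536-well plates, 5 days after pin-tool dosing the day after seeding with one drug alone or a fixed anchor-drug dose plus five library-drug doses (not always all listed) in √10 steps.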
# Dasatinib + Foretinib = compound: Cc1nc(Nc2ncc(C(=O)Nc3c(C)cccc3Cl)s2)cc(N2CCN(CCO)CC2)n1 [Dasatinib] + COc1cc2c(Oc3ccc(NC(=O)C4(C(=O)Nc5ccc(F)cc5)CC4)cc3F)ccnc2cc1OCCCN1CCOCC1 [Foretinib] (partner 0.25 µM)
# Method in brief: as §1
# Dasatinib + Vorinostat = compound: Cc1nc(Nc2ncc(C(=O)Nc3c(C)cccc3Cl)s2)cc(N2CCN(CCO)CC2)n1 [Dasatinib] + O=C(CCCCCCC(=O)Nc1ccccc1)NO [Vorinostat] (partner 1 µM)
# Method in brief: as §1
# XMD13-2 + Trametinib = compound: C1CC1C(=O)NC2=NNC3=C2C=CC(=C3)C4=CC(=CC=C4)C(=O)NC5CC5 [XMD13-2] + CC(=O)Nc1cccc(-n2c(=O)n(C3CC3)c(=O)c3c(Nc4ccc(I)cc4F)n(C)c(=O)c(C)c32)c1 [Trametinib] (partner 0.02 µM)
# Method in brief: as §1
Cell Line,relative viability (ALW-II-49-7 + Linsitinib; first compound 0.08 µM),relative viability (ALW-II-49-7 + Linsitinib; first compound 0.253 µM),relative viability (ALW-II-49-7 + Linsitinib; first compound 0.8 µM),relative viability (ALW-II-49-7 + Linsitinib; first compound 2.53 µM),relative viability (ALW-II-49-7 + Linsitinib; first compound 8 µM),relative viability (Dasatinib + Foretinib; first compound 0.005 µM),relative viability (Dasatinib + Foretinib; first compound 0.01581 µM),relative viability (Dasatinib + Foretinib; first compound 0.05 µM),relative viability (Dasatinib + Foretinib; first compound 0.1581 µM),relative viability (Dasatinib + Foretinib; first compound 0.5 µM),relative viability (Dasatinib + Vorinostat; first compound 0.005 µM),relative viability (Dasatinib + Vorinostat; first compound 0.01581 µM),relative viability (Dasatinib + Vorinostat; first compound 0.05 µM),relative viability (Dasatinib + Vorinostat; first compound 0.1581 µM),relative viability (Dasatinib + Vorinostat; first compound 0.5 µM),relative viability (XMD13-2 + Trametinib; first compound 0.05 µM),relative viability (XMD13-2 + Trametinib; first compound 0.1581 µM),relative viability (XMD13-2 + Trametinib; first compound 0.5 µM),relative viability (XMD13-2 + Trametinib; first compound 1.581 µM),relative viability (XMD13-2 + Trametinib; first compound 5 µM)
NCI-H727,0.303,0.331,0.316,0.283,0.37,0.616,0.512,0.431,0.278,0.185,1.18,0.97,0.841,0.871,0.264,0.401,0.431,0.37,0.382,0.38
NCI-H358,0.801,0.661,0.816,0.725,0.742,0.649,0.532,0.433,0.198,0.162,0.513,0.47,0.388,0.15,0.128,0.128,0.127,0.132,0.13,0.135
NCI-H1437,0.935,1.04,,0.942,0.754,1.25,1.23,1.32,1.07,0.848,0.972,1.04,1.03,0.914,0.59,0.598,0.49,0.482,0.498,0.417
NCI-H441,0.529,0.61,0.432,0.496,0.508,1.06,0.988,1.02,0.701,0.382,0.778,0.651,0.887,0.813,0.581,0.569,0.452,0.459,0.535,0.538
EMC-BAC-2,0.811,0.814,0.894,0.836,0.747,0.862,0.733,0.573,0.297,0.242,0.392,0.308,0.273,0.22,0.172,0.986,0.893,0.824,,0.805
NCI-H647,1.1,1.35,1.03,1.04,1.05,1.11,1.17,0.649,0.276,0.252,0.674,0.49,0.415,0.149,0.184,0.621,0.4,0.587,0.431,0.305
CAL-12T,1.01,0.965,0.736,0.796,0.701,1.18,1.04,1.23,0.66,0.532,1.02,0.846,0.708,0.477,0.225,0.465,0.399,0.332,0.317,0.307
NCI-H1792,0.402,0.338,0.421,0.321,0.371,,,,,,,,,,,0.549,0.454,0.475,0.509,0.507
H3255,0.832,0.892,0.94,0.884,0.9,1.02,0.822,0.726,0.944,0.352,0.826,0.789,0.777,0.828,0.37,0.749,0.66,0.556,,0.475
HCC-78,0.485,0.473,0.609,0.5,0.487,0.549,0.461,0.384,0.302,0.249,0.373,0.354,0.324,0.336,0.219,0.842,0.71,0.834,0.833,0.792
EBC-1,0.83,0.784,0.358,0.856,0.391,0.106,,0.0991,0.121,0.0976,,,,,,,,,,
NCI-H2405,0.892,1.01,0.958,0.376,0.9,0.983,0.714,0.564,0.304,0.233,0.838,0.597,0.427,0.188,0.227,0.73,0.656,0.628,,0.65
A549,0.654,0.511,0.551,0.263,0.481,0.876,0.817,0.59,0.3,0.119,,,,,,,,,,
NCI-H3122,1.02,0.934,1.1,1.18,1.13,0.932,0.871,0.955,0.942,0.567,1.04,0.949,0.986,1.02,0.614,0.251,0.198,0.205,0.235,0.214
NCI-H1563,1.18,1.18,1.31,1.34,1.22,0.82,0.751,0.746,0.578,0.517,,,,,,,,,,
HCC-44,0.6,0.658,0.686,0.619,0.839,,,,,,1.26,1.03,1.32,1.16,0.867,1.2,1.04,1.17,1.05,1.05
PC-3 [JPC-3],1.01,0.914,0.935,0.995,0.952,1.05,1.02,1.05,0.948,0.434,0.86,0.953,0.787,0.522,0.475,0.681,0.721,0.737,,0.778
NCI-H1993,0.753,0.691,0.737,0.792,0.878,0.641,0.59,0.561,0.472,0.496,0.722,0.73,0.692,0.394,0.435,0.563,0.504,0.508,0.507,0.539
